One test concerns Ba/F3 HER2 A775insYVMA. Description: Growth inhibition of Ba/F3 cells engineered to overexpress HER2 A775_G776insYVMA (CellTiter-Glo luminescence). Format: cell-based. The following applies: concentrations 1000 to 0.32 nM, read-out: Ba/F3 HER2^YVMA GI50 class. As for the experimental part: (§1) Experimental Example: Growth inhibition of Ba/F3 HER2 A775insYVMA and wild-type Ba/F3 cells
(§2) In this Experimental Example, the compounds obtained in Examples 1 to 92 were evaluated for their ability to inhibit growth of cells harboring either the HER2 A775insYVMA mutation or wild-type EGFR. For this purpose, Ba/F3 cells (ATCC, USA) were genetically engineered to overexpress either HER2 A775_G776insYVMA or wild-type EGFR, and the growth of these engineered Ba/F3 cells were monitored in the presence of the compounds described in the Examples to evaluate their effects on growth inhibition.
(§3) Specifically, culture flasks of the engineered Ba/F3 cells suspended in RPMI 1640 medium supplemented with 10% fetal bovine serum (FBS) and 1% penicillin/streptomycin (Gibco BRL, USA) were placed in a cell incubator and incubated at 37°C and 5% CO2 level to allow them to reach a stable logarithmic growth phase. The cells were then harvested by centrifugation to remove the old media and placed into a 96-well plate by dividing them into 100 µL aliquots per well at a dilution of 1×10^5 cells/mL in fresh media. Each of the compounds prepared in the preceding Examples were dissolved in 99.5% (cell culture grade) dimethylsulfoxide (DMSO) to prepare a stock solution of 10 mM concentration, which were serially diluted in the culture medium to final concentrations of 1000, 200, 40, 8, 1.6 and 0.32 nM for HER2 A775insYVMA Ba/F3 cells and concentrations of 10000, 5000, 1000, 200, 40 and 8 nM for wild-type EGFR overexpressing Ba/F3 cells.
(§4) To each aliquot of cells in the 96-well plate, a 50 µL test solution comprising one of the compounds was added to result in each well a 150 µL volume of cells with a compound in a final concentration ranging from 10 µM to 0.32 nM. The Ba/F3 cells treated with the test solution were incubated for 72 hours at 37°C and 5% CO2 level and underwent a 30-minute acclimation by placing the 96-well plate carrying the cells in ambient temperature. Thereafter, to each well was added 50 µL CellTiter-Glo® Luminescent Cell Assay Reagent (CTG, Promega, USA). After allowing 10 minutes to stabilize the signal, luminescence intensity was measured using a microplate reader. The half-maximal growth inhibition concentration (GI50) was calculated from the luminescence readout of the test compounds with the difference between the initial and final cell densities for the well untreated with a compound set at 100% growth. Nonlinear regression analysis based on log[inhibitor] vs. normalized response mode of the Graph Prism software was used for calculating GI50 for each compound, which are summarized in Table 6. The calculated GI50 values are classified in Table 6 into four categories: A for GI50 values less than 100 nM, B for GI50 values more than 100 nM but less than 1,000 nM, C for GI50 values more than 1,000 nM but less than 5,000 nM, and D for GI50 values of more than 5,000 nM.
(In ATP-based viability assays light output follows the ATP content of the culture.)

Test [1] deals with wild-type EGFR overexpressing Ba/F3 cells. Briefly: Growth inhibition of Ba/F3 cells engineered to overexpress wild-type EGFR (CellTiter-Glo luminescence). In kind it is cell-based. The following applies: concentrations 10000 to 8 nM, read-out: Ba/F3 EGFR^WT GI50 class. As for the experimental part:
as §1, §2, §3, §4

Like-named read-outs stand apart in the source and are kept apart here.

Turning to `C=CC(=O)N(C)CCN(C)c1ccc2ncnc(Nc3ccc(Oc4ccc5c(c4)ncn5C)c(C)c3)c2n1` [Example 18, N-methyl-N-(2-(methyl(4-((3-methyl-4-((1-methyl-1H-benzo[d]imidazol-5-yl)oxy)phenyl)amino)pyrido[3,2-d]pyrimidin-6-yl)amino)ethyl)acrylamide], the GI50 in the test with Ba/F3 HER2 A775insYVMA (Mus musculus, BaF3, 72 hours) was 100 to 1000 nM; in test [1] (Mus musculus, BaF3, 72 hours), more than 5000 nM.
For the compound `Cc1cc(Nc2ncnc3ccc(/C=C/CNC(=O)/C=C/CN(C)C)nc23)ccc1Oc1ccc2c(c1)ncn2C` [Example 40, (E)-4-(dimethylamino)-N-((E)-3-(4-((3-methyl-4-((1-methyl-1H-benzo[d]imidazol-5-yl)oxy)phenyl)amino)pyrido[3,2-d]pyrimidin-6-yl)allyl)but-2-enamide], the GI50 is less than 100 nM with Ba/F3 HER2 A775insYVMA (Mus musculus, BaF3, 72 hours) and more than 5000 nM in test [1] (Mus musculus, BaF3, 72 hours).
As for `C=CC(=O)N(C)CC/C=C/c1ccc2ncnc(Nc3ccc(Oc4ccc5c(c4)ncn5C)c(C)c3)c2n1` [Example 26, (E)-N-methyl-N-(4-(4-((3-methyl-4-((1-methyl-1H-benzo[d]imidazol-5-yl)oxy)phenyl)amino)pyrido[3,2-d]pyrimidin-6-yl)but-4-en-1-yl)acrylamide], the GI50 with Ba/F3 HER2 A775insYVMA (Mus musculus, BaF3, 72 hours) is less than 100 nM; in test [1] (Mus musculus, BaF3, 72 hours), 1000 to 5000 nM.
With “(S)-1-(2-((4-((3-methyl-4-((1-methyl-1H-benzo[d]imidazol-5-yl)oxy)phenyl)amino)pyrido[3,2-d]pyrimidin-6-yl)ethynyl)pyrrolidin-1-yl)prop-2-en-1-one [Example 87]”, the GI50 was less than 100 nM in the test on Ba/F3 HER2 A775insYVMA (72 hours) and 1000 to 5000 nM in test [1] (72 hours).
`C=CC(=O)N(C)CCCNc1ccc2ncnc(Nc3ccc(Oc4ccc5c(c4)ncn5C)c(C)c3)c2n1` [Example 17, N-methyl-N-(3-((4-((3-methyl-4-((1-methyl-1H-benzo[d]imidazol-5-yl)oxy)phenyl)amino)pyrido[3,2-d]pyrimidin-6-yl)amino)propyl)acrylamide]: the GI50 with Ba/F3 HER2 A775insYVMA (Mus musculus, BaF3, 72 hours) is less than 100 nM; in test [1] (Mus musculus, BaF3, 72 hours), more than 5000 nM.
Take `C=CC(=O)N1CCCC[C@@H]1C#Cc1ncc2ncnc(Nc3ccc(Oc4ccc5c(c4)ncn5C)c(C)c3)c2n1` [Example 91, (R)-1-(2-((8-((3-methyl-4-((1-methyl-1H-benzo[d]imidazol-5-yl)oxy)phenyl)amino)pyrimido[5,4-d]pyrimidin-2-yl)ethynyl)piperidin-1-yl)prop-2-en-1-one]: the GI50 was in the range of 100 to 1000 nM with Ba/F3 HER2 A775insYVMA (Mus musculus, BaF3, 72 hours) and 100 to 1000 nM in test [1] (Mus musculus, BaF3, 72 hours).
In the case of `C=CC(=O)N(C)CC#Cc1cc2c(Nc3ccc(Oc4ccn5ncnc5c4)c(C)c3)ncnc2cc1OC` [Example 73, N-(3-(4-((4-([1,2,4]triazolo[1,5-a]pyridin-7-yloxy)-3-methylphenyl)amino)-7-methoxyquinazolin-6-yl)prop-2-yn-1-yl)-N-methylacrylamide], the GI50 in the test with Ba/F3 HER2 A775insYVMA (Mus musculus, BaF3, 72 hours) was in the range of 1000 to 5000 nM; in test [1] (Mus musculus, BaF3, 72 hours), 1000 to 5000 nM.
Turning to `C=CC(=O)N(C)C/C=C/c1ccc2ncnc(Nc3ccc(Oc4ccc5ocnc5c4)c(C)c3)c2n1` [Example 57, (E)-N-(3-(4-((4-(benzo[d]oxazol-5-yloxy)-3-methylphenyl)amino)pyrido[3,2-d]pyrimidin-6-yl)allyl)-N-methylacrylamide], the GI50 with Ba/F3 HER2 A775insYVMA (Mus musculus, BaF3, 72 hours) was less than 100 nM; in test [1] (Mus musculus, BaF3, 72 hours), 100 to 1000 nM.
With `Cc1cc(Nc2ncnc3ccc(/C=C/CN(C)C(=O)/C=C/CN4CCCCC4)nc23)ccc1Oc1ccc2c(c1)ncn2C` [Example 61, (E)-N-methyl-N-((E)-3-(4-((3-methyl-4-((1-methyl-1H-benzo[d]imidazol-5-yl)oxy)phenyl)amino)pyrido[3,2-d]pyrimidin-6-yl)allyl)-4-(piperidin-1-yl)but-2-enamide], the GI50 with Ba/F3 HER2 A775insYVMA (Mus musculus, BaF3, 72 hours) is less than 100 nM; in test [1] (Mus musculus, BaF3, 72 hours), 1000 to 5000 nM.
Turning to `C=CC(=O)N1CC(/C=C/c2ccc3ncnc(Nc4ccc(Oc5cnc6c(c5)ncn6C)c(C)c4)c3n2)C1` [Example 44], the GI50 in the test with Ba/F3 HER2 A775insYVMA (Mus musculus, BaF3, 72 hours) was less than 100 nM; in test [1] (Mus musculus, BaF3, 72 hours), more than 5000 nM.
On to `Cc1cc(Nc2ncnc3ccc(/C=C/CN(C)C(=O)/C=C/CN4CCOCC4)nc23)ccc1Oc1ccc2c(c1)ncn2C` [Example 62, (E)-N-methyl-N-((E)-3-(4-((3-methyl-4-((1-methyl-1H-benzo[d]imidazol-5-yl)oxy)phenyl)amino)pyrido[3,2-d]pyrimidin-6-yl)allyl)-4-morpholinobut-2-enamide], for which the GI50 with Ba/F3 HER2 A775insYVMA (Mus musculus, BaF3, 72 hours) is 100 to 1000 nM; in test [1] (Mus musculus, BaF3, 72 hours), more than 5000 nM.
As for `C=CC(=O)N1CC(/C=C/c2ccc3ncnc(Nc4ccc(Oc5cnc6c(c5)ncn6C)c(C)c4F)c3n2)C1` [Example 47], the GI50 in the test on Ba/F3 HER2 A775insYVMA (Mus musculus, BaF3, 72 hours) was less than 100 nM; in test [1] (Mus musculus, BaF3, 72 hours), 1000 to 5000 nM.
Take `C=CC(=O)N(C)CC#Cc1cc2c(Nc3ccc(Oc4ccn5ncnc5c4)c(C)c3)ncnc2cn1` [Example 67, N-(3-(4-((4-([1,2,4]triazolo[1,5-a]pyridin-7-yloxy)-3-methylphenyl)amino)pyrido[3,4-d]pyrimidin-6-yl)prop-2-yn-1-yl)-N-methylacrylamide]: the GI50 in the test with Ba/F3 HER2 A775insYVMA (Mus musculus, BaF3, 72 hours) fell in the range of 100 to 1000 nM; in test [1] (Mus musculus, BaF3, 72 hours), 100 to 1000 nM.
For the compound `C=CC(=O)N(C)CCOc1ccc2ncnc(Nc3ccc(Oc4ccc5c(c4)ncn5C)c(C)c3)c2c1` [Example 5, N-methyl-N-(2-((4-((3-methyl-4-((1-methyl-1H-benzo[d]imidazol-5-yl)oxy)phenyl)amino)quinazolin-6-yl)oxy)ethyl)acrylamide], the GI50 in the test with Ba/F3 HER2 A775insYVMA (Mus musculus, BaF3, 72 hours) was less than 100 nM; in test [1] (Mus musculus, BaF3, 72 hours), more than 5000 nM.
Turning to `C=CC(=O)N(C)CC(=O)Nc1ccc2ncnc(Nc3ccc(Oc4ccc5c(c4)ncn5C)c(C)c3)c2n1` [Example 21, N-methyl-N-(2-((4-((3-methyl-4-((1-methyl-1H-benzo[d]imidazol-5-yl)oxy)phenyl)amino)pyrido[3,2-d]pyrimidin-6-yl)amino)-2-oxoethyl)acrylamide], the GI50 with Ba/F3 HER2 A775insYVMA (Mus musculus, BaF3, 72 hours) was 100 to 1000 nM; in test [1] (Mus musculus, BaF3, 72 hours), 1000 to 5000 nM.
For the compound `Cc1cc(Nc2ncnc3ccc(/C=C/CNC(=O)/C=C/[C@H]4CCCN4C)nc23)ccc1Oc1ccc2c(c1)ncn2C` [Example 58, (E)-N-((E)-3-(4-((3-methyl-4-((1-methyl-1H-benzo[d]imidazol-5-yl)oxy)phenyl)amino)pyrido[3,2-d]pyrimidin-6-yl)allyl)-3-((R)-1-methylpyrrolidin-2-yl)acrylamide], the GI50 lay in the range of 100 to 1000 nM with Ba/F3 HER2 A775insYVMA (Mus musculus, BaF3, 72 hours) and 1000 to 5000 nM in test [1] (Mus musculus, BaF3, 72 hours).
For `C=CC(=O)N(CC)C/C=C/c1ccc2ncnc(Nc3ccc(Oc4ccc5c(c4)ncn5C)c(C)c3)c2n1` [Example 49, (E)-N-ethyl-N-(3-(4-((3-methyl-4-((1-methyl-1H-benzo[d]imidazol-5-yl)oxy)phenyl)amino)pyrido[3,2-d]pyrimidin-6-yl)allyl)acrylamide] the same measures were less than 100 nM and more than 5000 nM.
In the case of `C=CC(=O)N(C)C/C=C/c1ccc2ncnc(Nc3ccc(Oc4ccc5c(c4)ncn5C)c(C)c3F)c2n1` [Example 42, (E)-N-(3-(4-((2-fluoro-3-methyl-4-((1-methyl-1H-benzo[d]imidazol-5-yl)oxy)phenyl)amino)pyrido[3,2-d]pyrimidin-6-yl)allyl)-N-methylacrylamide], the GI50 in the test on Ba/F3 HER2 A775insYVMA (Mus musculus, BaF3, 72 hours) is less than 100 nM; in test [1] (Mus musculus, BaF3, 72 hours), 1000 to 5000 nM.
On to `C=CC(=O)N(C)CCCN(C)c1ccc2ncnc(Nc3ccc(Oc4ccc5c(c4)ncn5C)c(C)c3)c2n1` [Example 20, N-methyl-N-(3-(methyl(4-((3-methyl-4-((1-methyl-1H-benzo[d]imidazol-5-yl)oxy)phenyl)amino)pyrido[3,2-d]pyrimidin-6-yl)amino)propyl)acrylamide], for which the GI50 was 100 to 1000 nM in the test with Ba/F3 HER2 A775insYVMA (Mus musculus, BaF3, 72 hours) and more than 5000 nM in test [1] (Mus musculus, BaF3, 72 hours).
Consider `C=CC(=O)N1CCC[C@@H]1C#Cc1ccc2ncnc(Nc3ccc(Oc4ccn5ncnc5c4)c(C)c3)c2c1` [Example 74, (R)-1-(2-((4-((4-([1,2,4]triazolo[1,5-a]pyridin-7-yloxy)-3-methylphenyl)amino)quinazolin-6-yl)ethynyl)pyrrolidin-1-yl)prop-2-en-1-one], for which the GI50 in the test with Ba/F3 HER2 A775insYVMA (Mus musculus, BaF3, 72 hours) is less than 100 nM; in test [1] (Mus musculus, BaF3, 72 hours), less than 100 nM.

Values taken from patent publication EP4782450A1, “NOVEL SKELETAL DERIVATIVE EFFECTIVE FOR HER2 MUTATION, AND PHARMACEUTICAL COMPOSITION COMPRISING SAME” (Hanmi Pharm. Co., Ltd., priority 2023, dated 2025).
